In patent publication US20030143548A1, “Predicting patient responsiveness to serotonergic therapy” (priority 2002, published 2003):

How the values were obtained:
[1] = test system: patients with diarrhea-predominant IBS; experiment: Scintigraphic measurement of colonic transit (colonic geometric center at 24 hours) at baseline and after 6 weeks of alosetron; assay type: in vivo, human; details: for change in colonic geometric center (ΔGC) at 24 hr: 6 weeks vs baseline, negative = slower transit
Source text: Colonic transit can be monitored by known methods (Camilleri M. and Zinsmeister A. R., Gastroenterology 103:36-42 (1992); and Camilleri M. et al., Dig. Dis. Sci. 36:609-615 (1991)). In general, labeled (e.g., ^111In) pellets can be delivered to the colon by means of a methacrylate-coated, delayed-release capsule. Simultaneously, labeled (e.g., ^99mTc) pellets can be ingested in a scrambled egg, toast, and milk meal to facilitate measurement of gastric and small bowel transit. A large field gamma camera (e.g., GE 500, General Electric, Milwaukee, Wis.) with a medium energy parallel hole collimator can be used to obtain images. Typically, images are obtained with subjects in the erect position. A variable region of interest (ROI) program can be used to measure colonic transit, with abdominal images obtained at periodic intervals (e.g.,4, 6, 8, 24, 32, and 48 hours pre- or post-treatment. The amount of label can be determined from the abdominal images in four colonic regions: the ascending, transverse, descending, and combined sigmoid and rectum regions. These counts may be corrected for isotope decay and tissue attenuation, as described in Camilleri et al. (1991) and Camilleri and Zinsmeister (1992), referenced above. The colonic geometric center is the weighted average of counts in the four different colonic regions [ascending (AC), transverse (TC), descending (DC), rectosigmoid (RS) and stool]:
(% AC×1+% TC×2+% DC×3+% RS×4+% stool×5)/100=geometric center
A high geometric center implies faster colonic transit, while a reduction of geometric center with treatment implies a retardation of colonic transit.
Thirty patients with diarrhea-predominant IBS associated were studied. Gastrointestinal and colonic transit were performed during a baseline period and during the last week of a 6-week therapeutic trial with alosetron 1 mg twice daily (b.i.d.). Demographic data of the original 30 participants are as follows: mean age 43.2±3y (females 46±4y, males 40±4y); mean duration of IBS 11.2±2.0y (females 9.2±2.3y and males 13.1±3.2y). Twenty-three of the 30 patients agreed to participate in an evaluation of the influence of the genotype of the promoter region of the 5-HTTP gene. The demographics, gender, and duration of illness in the three groups of patients according to 5-HTTP genotype are shown in the table below.
An established scintigraphic method was used as referenced above. Briefly, ^111In pellets were delivered to the colon by means of a methacrylate-coated, delayed-release capsule. Simultaneously, ^99mTc pellets were ingested in a scrambled egg, toast, and milk meal (218 kcal) to facilitate measurement of gastric and small bowel transit. Subjects ingested standardized meals for lunch and dinner. A variable region of interest (ROI) program was used to measure colonic transit. Abdominal images at 4, 6, 8, 24, 32, and 48 hours were obtained using a large field of view gamma camera (GE 500, General Electric, Milwaukee, Wis.) with a medium energy parallel hole collimator. All images were obtained with the subjects in the erect position. Radioscintigraphic markers were placed for reference on the anterior ends of the iliac crests. Anterior and posterior images were obtained with the camera positioned over the abdomen. This facilitated subsequent correction of radioisotopic counts for tissue attenuation.
The counts in four colonic regions were determined: the ascending, transverse, descending, and combined sigmoid and rectum regions. These counts were corrected for isotope decay and tissue attenuation, as referenced above. The primary endpoint of investigation was the colonic geometric center at 24 hours. The colonic geometric center is the weighted average of counts in the four different colonic regions [ascending (AC), transverse (TC), descending (DC), rectosigmoid (RS) and stool]:
Thus, a high geometric center implies faster colonic transit, while a reduction of geometric center with treatment implies a retardation of colonic transit. […]

[2] = test system: patients with diarrhea-predominant IBS; details: cited from earlier work
[3] = by gender; cited from earlier work
[4] = females, alosetron 1 mg b.i.d., 6 weeks
[5] = males, alosetron 1 mg b.i.d., 6 weeks

SMILES: Cc1[nH]cnc1CN1CCc2c(c3ccccc3n2C)C1=O [alosetron]
- number of females in whom there was no effect on colonic transit [1, 4]: 2
- number of patients with retardation of colonic transit greater than the clinically significant threshold of 1.14 colonic regions [1, 4]: Nine
- change in colonic geometric center (ΔGC) at 24 hr ([1]; females, alosetron 1 mg b.i.d., p=0.005 vs males): −1.45±0.25 geometric center units
- colonic transit response by 5-HTTP promoter genotype (change of 1.14 units in ΔGC24h, FIG. 2) ([1]; genotype groups after treatment with alosetron): a greater response was observed in those with the long polymorphism
- proportion of high responders (slowing of colonic transit by more than 1.14 regions) ([1]; heterozygous 5-HTTP promoter genotype group): 2 of 11
- proportion of high responders (slowing of colonic transit by more than 1.14 regions) ([1]; long variant homozygous 5-HTTP promoter genotype group, Fisher's exact test p=0.024 vs heterozygous): 6 of 8
- colonic transit response by 5-HTTP promoter genotype ([1]; long/long homozygous vs long/short heterozygous patients, p=0.039): significantly higher response in long variant/long variant homozygous
- males with retardation of colonic transit at 24 hours equal to or greater than the mean change in females (1.45 geometric center units) [1, 5]: 2 of 15
- number of patients with retardation of colonic transit greater than the clinically significant threshold of 1.14 colonic regions [1, 5]: 3
- change in colonic geometric center (ΔGC) at 24 hr ([1]; males, alosetron 1 mg b.i.d.): −0.32±0.27 geometric center units
- colonic geometric centers at 24 hours following treatment compared to baseline ([1]; patients with IBS, alosetron 1 mg b.i.d., last week of 6-week trial, lower = slower colonic transit): significantly lower
- adequate relief of IBS pain and discomfort and normalization of bowel function ([2]; clinical trials, women with diarrhea-predominant IBS): beneficial effect
- effect on colonic transit in patients with diarrhea-predominant IBS ([2]; greater effect in females than males): significantly prolonged
- systemic exposure, females compared to males [3]: slightly greater systemic exposure
